Experimental data published in PubChem BioAssay AID330 (DTP/NCI, 2004).
“And” between values parts separate entries of the source, which are not always exact repeats. Identical values can stand only once. Inconclusive results and toxic doses are left out.

Tested on: P388 leukemia ip, CD2F1 mice, survival T/C
Assay: NCI In Vivo Anticancer Drug Screen. Data for tumor model P388 Leukemia (intraperitoneal) in CD2F1 (CDF1) mice
Settings: endpoint: median survival time, higher = longer survival
Outline: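 Mice carrying the transplanted tumor received test compound or vehicle. Survival was recorded in each group, and the value is the treated-group measurement divided by that of the vehicle-treated control group.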

[1] = dose: 12.5 mg/kg/injection, schedule: Q01DX009 (ip), vehicle: Klucel (hydroxypropylcellulose) (HPC)
[2] = dose: 25.0 mg/kg/injection, schedule: Q01DX009 (ip), vehicle: Klucel (hydroxypropylcellulose) (HPC)
[3] = dose: 50.0 mg/kg/injection, schedule: Q01DX009 (ip), vehicle: Klucel (hydroxypropylcellulose) (HPC)
[4] = dose: 100.0 mg/kg/injection, schedule: Q01DX009 (ip), vehicle: Klucel (hydroxypropylcellulose) (HPC)
[5] = dose: 100.0 mg/kg/injection, schedule: Q04DX003 (ip), vehicle: Klucel (hydroxypropylcellulose) (HPC)
[6] = dose: 200.0 mg/kg/injection, schedule: Q01DX009 (ip), vehicle: Klucel (hydroxypropylcellulose) (HPC)
[7] = dose: 200.0 mg/kg/injection, schedule: Q04DX003 (ip), vehicle: Klucel (hydroxypropylcellulose) (HPC)
[8] = dose: 50.0 mg/kg/injection, schedule: Q01DX009 (ip), vehicle: saline
[9] = dose: 100.0 mg/kg/injection, schedule: Q01DX009 (ip), vehicle: saline
[10] = dose: 100.0 mg/kg/injection, schedule: Q01DX009 (ip), vehicle: saline with Tween-80
[11] = dose: 200.0 mg/kg/injection, schedule: Q01DX009 (ip), vehicle: saline with Tween-80
[12] = dose: 60.0 mg/kg/injection, schedule: Q01DX005 (ip), vehicle: saline with Tween-80
[13] = dose: 120.0 mg/kg/injection, schedule: Q01DX005 (ip), vehicle: saline with Tween-80
[14] = dose: 240.0 mg/kg/injection, schedule: Q01DX005 (ip), vehicle: saline with Tween-80
[15] = dose: 50.0 mg/kg/injection, schedule: Q01DX005 (ip), vehicle: saline with Tween-80
[16] = dose: 100.0 mg/kg/injection, schedule: Q01DX005 (ip), vehicle: saline with Tween-80
[17] = dose: 200.0 mg/kg/injection, schedule: Q01DX005 (ip), vehicle: saline with Tween-80
[18] = dose: 200.0 mg/kg/injection, schedule: Q01DX009 (ip), vehicle: saline
[19] = dose: 400.0 mg/kg/injection, schedule: Q01DX009 (ip), vehicle: saline
[20] = dose: 100.0 mg/kg/injection, schedule: Q01DX001 (ip), vehicle: Klucel (hydroxypropylcellulose) (HPC)
[21] = dose: 200.0 mg/kg/injection, schedule: Q01DX001 (ip), vehicle: Klucel (hydroxypropylcellulose) (HPC)
[22] = dose: 100.0 mg/kg/injection, schedule: Q01DX009 (ip), vehicle: other
[23] = dose: 200.0 mg/kg/injection, schedule: Q01DX009 (ip), vehicle: other

## O=C(CBr)N1c2ccccc2Sc2c1ccc1ccccc21
dose: 6.25 mg/kg/injection, schedule: Q01DX009 (ip), vehicle: Klucel (hydroxypropylcellulose) (HPC)
  T/C: 86 % of control
[1]
  T/C: 111 % of control
[2]
  T/C: 117 % of control
[3]
  T/C: 117 % of control
dose: 50.0 mg/kg/injection, schedule: Q04DX003 (ip), vehicle: Klucel (hydroxypropylcellulose) (HPC)
  T/C: 99 % of control and 114 % of control
[4]
  T/C: 120 % of control
[5]
  T/C: 99 % of control and 113 % of control and 120 % of control
[6]
  T/C: 120 % of control
[7]
  T/C: 101 % of control and 120 % of control and 87 % of control
dose: 400.0 mg/kg/injection, schedule: Q04DX003 (ip), vehicle: Klucel (hydroxypropylcellulose) (HPC)
  T/C: 106 % of control and 123 % of control

## O=C1C/C(=N\Nc2nc(-c3ccc(Cl)cc3)cs2)C(c2ccccc2)N1c1ccccc1 (centres undefined)
dose: 100.0 mg/kg/injection, schedule: Q01DX001 (ip), vehicle: saline with Tween-80
  T/C: 98 % of control
dose: 200.0 mg/kg/injection, schedule: Q01DX001 (ip), vehicle: saline with Tween-80
  T/C: 90 % of control
dose: 400.0 mg/kg/injection, schedule: Q01DX001 (ip), vehicle: saline with Tween-80
  T/C: 90 % of control

## CCOC(=O)CN1C(=S)CSC1=S
[3]
  T/C: 106 % of control
[4]
  T/C: 98 % of control
[6]
  T/C: 107 % of control and 109 % of control

## CCC/C=c1/[nH]c(=O)/c(=C\c2ccc(OC)cc2)[nH]c1=O
[2]
  T/C: 101 % of control
[3]
  T/C: 96 % of control
[4]
  T/C: 102 % of control

## CC1=NN(c2cc(S(=O)(=O)O)ccc2Cl)C(=O)C1N=Nc1ccccc1 (centres undefined)
[8]
  T/C: 105 % of control
[9]
  T/C: 89 % of control

## ICC1COC(CI)CO1 (centres undefined)
[10]
  T/C: 100 % of control
[11]
  T/C: 104 % of control
dose: 400.0 mg/kg/injection, schedule: Q01DX009 (ip), vehicle: saline with Tween-80
  T/C: 90 % of control

## CCC(O)(c1ccccc1)c1cnc(C)n1Cc1ccccc1 (centres undefined)
[12]
  T/C: 91 % of control
[13]
  T/C: 88 % of control
[14]
  T/C: 89 % of control

## COC(=O)C1=C2\c3cc4c(cc3CCN2C(=O)c2ccc(OC)c(OC)c2/C(OC)=C\1)OCO4
[15]
  T/C: 93 % of control
[16]
  T/C: 90 % of control
[17]
  T/C: 90 % of control

## CC(=O)NCSCC(N)C(=O)O (centres undefined)
[9]
  T/C: 104 % of control
dose: 100.0 mg/kg/injection, schedule: Q04DX003 (ip), vehicle: saline
  T/C: 95 % of control
[18]
  T/C: 118 % of control
dose: 200.0 mg/kg/injection, schedule: Q04DX003 (ip), vehicle: saline
  T/C: 113 % of control
[19]
  T/C: 90 % of control
dose: 400.0 mg/kg/injection, schedule: Q04DX003 (ip), vehicle: saline
  T/C: 90 % of control

## COc1ccc(CC2C=CCN2C(=O)OCc2ccccc2)cc1 (centres undefined)
[20]
  T/C: 106 % of control
[21]
  T/C: 99 % of control
dose: 400.0 mg/kg/injection, schedule: Q01DX001 (ip), vehicle: Klucel (hydroxypropylcellulose) (HPC)
  T/C: 99 % of control

## Cc1ccc(S(=O)(=O)C2CC(=O)N(c3ccc(F)c(Cl)c3)C2=O)cc1 (centres undefined)
dose: 100.0 mg/kg/injection, schedule: Q04DX002 (ip), vehicle: saline with Tween-80
  T/C: 94 % of control
dose: 200.0 mg/kg/injection, schedule: Q04DX002 (ip), vehicle: saline with Tween-80
  T/C: 94 % of control
dose: 400.0 mg/kg/injection, schedule: Q04DX002 (ip), vehicle: saline with Tween-80
  T/C: 96 % of control

## CC1=Nc2ccccc2OC2(C1)C(C1COC(C)(C)O1)OC1OC(C)(C)OC12 (centres undefined)
[15]
  T/C: 99 % of control
[16]
  T/C: 95 % of control
[17]
  T/C: 104 % of control

## COc1ccc(C2C(C(=O)NCc3ccccc3)=C(C)NC(C)=C2C(=O)NCc2ccccc2)cc1OC
dose: 15.0 mg/kg/injection, schedule: Q01DX005 (ip), vehicle: Klucel (hydroxypropylcellulose) (HPC)
  T/C: 100 % of control
dose: 30.0 mg/kg/injection, schedule: Q01DX005 (ip), vehicle: Klucel (hydroxypropylcellulose) (HPC)
  T/C: 100 % of control
dose: 60.0 mg/kg/injection, schedule: Q01DX005 (ip), vehicle: Klucel (hydroxypropylcellulose) (HPC)
  T/C: 100 % of control and 88 % of control

## CC(=O)C1(c2ccccc2)CCN(c2c3ccccc3nc3ccccc23)CC1
[5]
  T/C: 108 % of control
[7]
  T/C: 111 % of control

## CC1(C)CN(C(=S)N2CC(C)(C)SC2=O)C(=O)S1
[12]
  T/C: 108 % of control
[13]
  T/C: 98 % of control
[14]
  T/C: 104 % of control

## CCOc1nnc(-c2ccc(OC)c(OC)c2)o1
dose: 12.5 mg/kg/injection, schedule: Q01DX009 (ip), vehicle: other
  T/C: 90 % of control
[22]
  T/C: 106 % of control
[23]
  T/C: 90 % of control

## O=C1CCCc2c1ccc1ccccc21
[15]
  T/C: 100 % of control
[16]
  T/C: 101 % of control
[17]
  T/C: 98 % of control

## O=C(N=C1C(=O)C2(CCCCC2)C2(N=C(c3ccccc3)OC2=O)C12CCCCC2)c1ccccc1 (centres undefined)
[12]
  T/C: 107 % of control
[13]
  T/C: 100 % of control
[14]
  T/C: 100 % of control

## CCn1c(=O)c2[nH]c(Cl)nc2n(CC(C)Cl)c1=O (centres undefined)
[1]
  T/C: 94 % of control
[2]
  T/C: 101 % of control
[3]
  T/C: 100 % of control and 103 % of control
[4]
  T/C: 104 % of control

## C#CCOc1ccccc1O
[9]
  T/C: 100 % of control
[18]
  T/C: 110 % of control
[19]
  T/C: 115 % of control

## CNC(=S)N(C)CCCCN(C)C(=S)NC
[8]
  T/C: 102 % of control
[9]
  T/C: 105 % of control
[18]
  T/C: 100 % of control

## CCCCCCCCCCCCCCCCOP(=O)([O-])OCC[N+](C)(C)C
dose: 15.0 mg/kg/injection, schedule: Q01DX005 (ip), vehicle: saline
  T/C: 100 % of control
dose: 30.0 mg/kg/injection, schedule: Q01DX005 (ip), vehicle: saline
  T/C: 100 % of control
dose: 60.0 mg/kg/injection, schedule: Q01DX005 (ip), vehicle: saline
  T/C: 102 % of control and 103 % of control

## C[N+](C)(Cc1ccccc1)c1nnn[n-]1
dose: 50.0 mg/kg/injection, schedule: Q01DX001 (ip), vehicle: Klucel (hydroxypropylcellulose) (HPC)
  T/C: 97 % of control
[20]
  T/C: 95 % of control
[21]
  T/C: 105 % of control

## CCN(CC)CCSS(=O)(=O)CCN(CC)CC
dose: 50.0 mg/kg/injection, schedule: Q01DX005 (ip), vehicle: saline
  T/C: 100 % of control
dose: 100.0 mg/kg/injection, schedule: Q01DX005 (ip), vehicle: saline
  T/C: 109 % of control

## O=C(O)/C=N/NS(=O)(=O)Cc1ccccc1
[22]
  T/C: 185 % of control
[23]
  T/C: 154 % of control and 166 % of control

## O=C(NCCCCCCCCCCNC(=O)C12CC3CC(CC(C3)C1)C2)C12CC3CC(CC(C3)C1)C2
dose: 12.5 mg/kg/injection, schedule: Q01DX005 (ip), vehicle: saline with Tween-80
  T/C: 98 % of control
dose: 25.0 mg/kg/injection, schedule: Q01DX005 (ip), vehicle: saline with Tween-80
  T/C: 96 % of control
[15]
  T/C: 86 % of control and 91 % of control

## Fc1ccccc1C(Nc1nc2ccccc2s1)Nc1nc2ccccc2s1
dose: 50.0 mg/kg/injection, schedule: Q01DX005 (ip), vehicle: Klucel (hydroxypropylcellulose) (HPC)
  T/C: 109 % of control
dose: 100.0 mg/kg/injection, schedule: Q01DX005 (ip), vehicle: Klucel (hydroxypropylcellulose) (HPC)
  T/C: 104 % of control
dose: 200.0 mg/kg/injection, schedule: Q01DX005 (ip), vehicle: Klucel (hydroxypropylcellulose) (HPC)
  T/C: 113 % of control

## Cc1ccc(NC(=O)Oc2cc(C)c(I)cc2C)cc1Cl
dose: 50.0 mg/kg/injection, schedule: Q01DX009 (ip), vehicle: saline with Tween-80
  T/C: 112 % of control
[10]
  T/C: 112 % of control
[11]
  T/C: 95 % of control

## CC(=O)Nc1ccc(OCC(O)CNC(C)C)c(C(C)=O)c1 (centres undefined)
[8]
  T/C: 101 % of control
[9]
  T/C: 92 % of control
[18]
  T/C: 97 % of control
